From BindingDB's records for doi:10.1016/j.bmcl.2006.05.062 (AstraZeneca, 2006)

Experiment: Inhibition of COX1-mediated platelet aggregation

Structure (SMILES): COc1ccc2c(c1)c(CC(=O)O)c(C)n2-c1ccnc2cc(Cl)ccc12 [2-(1-(7-chloroquinolin-4-yl)-5-methoxy-2-methyl-1H-indol-3-yl)acetic acid]
- IC50: 40 nM
